Assay: Biological half-life

half-life: 15 to 20 min
Structure (SMILES): CC[C@H](C)[C@H](NC(=O)[C@H](Cc1ccccc1)NC(=O)[C@H](CCC(=O)O)NC(=O)[C@H](CCCCN)NC(=O)[C@H](C)NC(=O)[C@H](C)NC(=O)[C@H](CCC(N)=O)NC(=O)CNC(=O)[C@H](CCC(=O)O)NC(=O)[C@H](CC(C)C)NC(=O)[C@H](Cc1ccc(O)cc1)NC(=O)[C@H](CO)NC(=O)[C@H](CO)NC(=O)[C@@H](NC(=O)[C@H](CC(=O)O)NC(=O)[C@H](CO)NC(=O)[C@@H](NC(=O)[C@H](Cc1ccccc1)NC(=O)[C@@H](NC(=O)CNC(=O)[C@H](CCC(=O)O)NC(=O)[C@H](C)NC(=O)[C@H](Cc1cnc[nH]1)NC(=O)[C@H](CCCNC(=N)N)NC(=O)[C@H](CCC(=O)O)NC(=O)[C@H](Cc1ccccc1)NC(=O)[C@H](CCC(=O)O)NC(=O)[C@H](CC(=O)O)NC(=O)[C@@H](N)Cc1cnc[nH]1)[C@@H](C)O)[C@@H](C)O)C(C)C)C(=O)N[C@@H](C)C(=O)N[C@@H](Cc1c[nH]c2ccccc12)C(=O)N[C@@H](CC(C)C)C(=O)N[C@H](C(=O)N[C@@H](CCCCN)C(=O)NCC(=O)N[C@@H](CCCNC(=N)N)C(=O)NCC(=O)O)C(C)C [GLP-1(1-37)]

— patent publication US7138486B2, “Insulinotropic hormone derivatives and uses thereof” (The General Hospital Corporation, priority 1986, dated 2006)
